Columns and labels:
Format in all cases: biochemical
Details in all cases: 100 micromolar inhibitor concentration, 100 is no change
TTBK1 = TTBK1 (Homo sapiens, UniProt Q5TCY1); test: Kinase profiling TTBK1
Description: (§1) Any value less that 25 is considered to be highly significant inhibition.

IKKe = biological target: T1, IKKe (Homo sapiens, UniProt Q14164); test: Kinase profiling IKKe
T1 sequence (Q14164 1-716): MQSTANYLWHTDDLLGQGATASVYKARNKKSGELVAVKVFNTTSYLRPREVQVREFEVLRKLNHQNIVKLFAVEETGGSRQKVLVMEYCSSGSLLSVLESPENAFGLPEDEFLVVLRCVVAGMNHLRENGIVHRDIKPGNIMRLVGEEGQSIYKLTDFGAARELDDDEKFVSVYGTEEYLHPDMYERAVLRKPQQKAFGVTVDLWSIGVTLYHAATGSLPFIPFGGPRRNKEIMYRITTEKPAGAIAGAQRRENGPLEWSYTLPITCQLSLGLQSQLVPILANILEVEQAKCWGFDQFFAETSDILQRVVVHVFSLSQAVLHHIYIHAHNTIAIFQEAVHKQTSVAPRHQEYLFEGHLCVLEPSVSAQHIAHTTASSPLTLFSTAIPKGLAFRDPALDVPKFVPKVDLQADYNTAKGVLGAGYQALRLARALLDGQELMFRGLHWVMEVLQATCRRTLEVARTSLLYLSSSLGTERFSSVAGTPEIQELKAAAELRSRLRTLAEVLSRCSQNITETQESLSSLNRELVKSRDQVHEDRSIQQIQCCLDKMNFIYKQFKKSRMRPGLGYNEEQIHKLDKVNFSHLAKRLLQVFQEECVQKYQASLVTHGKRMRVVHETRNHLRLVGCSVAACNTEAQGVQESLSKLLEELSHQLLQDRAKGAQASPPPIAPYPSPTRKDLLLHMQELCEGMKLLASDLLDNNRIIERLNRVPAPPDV
Description: as §1

PAK2 = PAK2 (Homo sapiens, UniProt Q13177); test: Kinase profiling PAK2
PAK2, sequence (Q13177 whole entry, species assumed): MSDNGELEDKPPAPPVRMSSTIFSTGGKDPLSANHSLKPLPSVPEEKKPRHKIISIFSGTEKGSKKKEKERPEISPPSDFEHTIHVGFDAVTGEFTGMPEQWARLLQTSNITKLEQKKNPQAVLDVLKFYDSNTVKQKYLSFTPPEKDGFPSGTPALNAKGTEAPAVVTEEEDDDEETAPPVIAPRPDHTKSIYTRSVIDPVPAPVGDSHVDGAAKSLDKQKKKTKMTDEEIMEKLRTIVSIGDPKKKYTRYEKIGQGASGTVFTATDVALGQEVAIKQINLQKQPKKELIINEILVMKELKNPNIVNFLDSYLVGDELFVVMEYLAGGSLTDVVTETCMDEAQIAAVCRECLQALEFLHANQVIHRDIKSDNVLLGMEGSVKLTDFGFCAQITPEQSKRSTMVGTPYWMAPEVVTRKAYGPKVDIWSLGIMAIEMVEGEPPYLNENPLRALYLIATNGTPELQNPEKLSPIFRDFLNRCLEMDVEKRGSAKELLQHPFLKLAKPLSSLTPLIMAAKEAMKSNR
Description: as §1

TAO1 = biological target: T2, TAO1 (Homo sapiens, UniProt Q7L7X3); test: Kinase profiling TAO1
T2 sequence (Q7L7X3 1-1001): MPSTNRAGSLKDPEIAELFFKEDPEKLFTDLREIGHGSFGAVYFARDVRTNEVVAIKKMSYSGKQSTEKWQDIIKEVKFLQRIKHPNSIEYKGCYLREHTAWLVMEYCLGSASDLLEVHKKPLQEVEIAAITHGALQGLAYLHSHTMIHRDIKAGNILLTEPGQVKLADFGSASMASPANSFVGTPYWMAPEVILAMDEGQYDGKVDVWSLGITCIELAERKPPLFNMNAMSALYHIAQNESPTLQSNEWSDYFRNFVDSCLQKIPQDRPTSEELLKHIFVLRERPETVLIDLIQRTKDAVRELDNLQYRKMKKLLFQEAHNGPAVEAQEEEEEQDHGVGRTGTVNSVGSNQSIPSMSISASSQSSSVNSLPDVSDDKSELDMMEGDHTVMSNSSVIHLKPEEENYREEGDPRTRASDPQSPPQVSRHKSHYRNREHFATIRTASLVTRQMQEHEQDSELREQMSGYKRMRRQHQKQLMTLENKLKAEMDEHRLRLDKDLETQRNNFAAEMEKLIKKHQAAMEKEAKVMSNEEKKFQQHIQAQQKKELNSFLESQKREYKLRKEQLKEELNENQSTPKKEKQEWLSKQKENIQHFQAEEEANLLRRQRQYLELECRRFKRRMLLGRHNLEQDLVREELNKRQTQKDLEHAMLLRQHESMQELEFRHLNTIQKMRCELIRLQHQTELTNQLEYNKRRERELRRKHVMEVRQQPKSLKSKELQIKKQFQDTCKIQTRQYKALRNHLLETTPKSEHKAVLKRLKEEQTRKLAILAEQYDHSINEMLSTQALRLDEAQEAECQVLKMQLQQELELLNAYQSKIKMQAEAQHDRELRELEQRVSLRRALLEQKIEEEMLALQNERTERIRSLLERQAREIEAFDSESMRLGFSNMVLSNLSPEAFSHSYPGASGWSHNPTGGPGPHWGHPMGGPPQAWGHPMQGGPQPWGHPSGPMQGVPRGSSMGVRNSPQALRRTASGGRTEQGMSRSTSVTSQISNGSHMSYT
Description: as §1

ZAP70 = biological target: T3, ZAP70 (Homo sapiens, UniProt P43403); test: Kinase profiling ZAP70
T3 sequence (P43403 1-619): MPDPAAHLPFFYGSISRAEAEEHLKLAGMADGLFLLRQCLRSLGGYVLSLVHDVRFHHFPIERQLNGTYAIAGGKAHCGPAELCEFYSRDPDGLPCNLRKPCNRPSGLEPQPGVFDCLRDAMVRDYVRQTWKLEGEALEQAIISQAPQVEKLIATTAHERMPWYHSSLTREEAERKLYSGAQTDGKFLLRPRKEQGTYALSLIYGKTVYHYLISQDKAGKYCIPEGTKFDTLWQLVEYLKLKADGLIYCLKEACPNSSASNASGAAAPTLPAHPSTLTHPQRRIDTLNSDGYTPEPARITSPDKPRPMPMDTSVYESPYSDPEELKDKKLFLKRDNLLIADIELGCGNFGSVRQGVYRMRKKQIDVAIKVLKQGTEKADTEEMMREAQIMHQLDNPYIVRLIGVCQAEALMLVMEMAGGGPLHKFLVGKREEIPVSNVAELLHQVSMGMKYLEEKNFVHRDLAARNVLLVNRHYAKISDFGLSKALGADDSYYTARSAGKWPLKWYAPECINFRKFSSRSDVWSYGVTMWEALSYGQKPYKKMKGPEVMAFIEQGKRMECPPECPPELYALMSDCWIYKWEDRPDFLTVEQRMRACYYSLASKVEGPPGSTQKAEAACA
Description: as §1

FGF-R1 = FGF-R1 (Homo sapiens, UniProt P11362); test: Kinase profiling FGF-R1
FGF-R1, sequence (P11362 22-822, species assumed): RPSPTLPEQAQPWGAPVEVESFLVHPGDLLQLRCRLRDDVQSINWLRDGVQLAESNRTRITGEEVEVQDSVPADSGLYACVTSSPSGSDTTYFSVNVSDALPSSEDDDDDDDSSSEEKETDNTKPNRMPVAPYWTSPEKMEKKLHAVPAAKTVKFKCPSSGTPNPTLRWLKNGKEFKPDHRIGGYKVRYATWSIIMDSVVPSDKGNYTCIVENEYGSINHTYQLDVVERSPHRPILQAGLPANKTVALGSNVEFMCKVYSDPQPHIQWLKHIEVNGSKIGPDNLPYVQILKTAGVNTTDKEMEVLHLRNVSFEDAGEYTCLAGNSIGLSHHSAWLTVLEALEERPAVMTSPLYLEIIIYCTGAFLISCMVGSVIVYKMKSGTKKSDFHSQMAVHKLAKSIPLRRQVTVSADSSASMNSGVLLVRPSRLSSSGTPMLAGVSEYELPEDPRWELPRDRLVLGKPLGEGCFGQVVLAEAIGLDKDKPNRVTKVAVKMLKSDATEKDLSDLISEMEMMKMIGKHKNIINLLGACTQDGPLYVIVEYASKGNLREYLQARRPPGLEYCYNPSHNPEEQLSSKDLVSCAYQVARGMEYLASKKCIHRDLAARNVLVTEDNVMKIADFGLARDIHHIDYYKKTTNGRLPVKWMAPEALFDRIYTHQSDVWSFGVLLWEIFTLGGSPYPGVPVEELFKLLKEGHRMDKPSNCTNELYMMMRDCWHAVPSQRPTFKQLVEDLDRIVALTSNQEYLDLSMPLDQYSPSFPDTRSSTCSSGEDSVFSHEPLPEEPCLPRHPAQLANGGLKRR
Description: as §1

TTBK1, sequence (Q5TCY1 whole entry, species assumed): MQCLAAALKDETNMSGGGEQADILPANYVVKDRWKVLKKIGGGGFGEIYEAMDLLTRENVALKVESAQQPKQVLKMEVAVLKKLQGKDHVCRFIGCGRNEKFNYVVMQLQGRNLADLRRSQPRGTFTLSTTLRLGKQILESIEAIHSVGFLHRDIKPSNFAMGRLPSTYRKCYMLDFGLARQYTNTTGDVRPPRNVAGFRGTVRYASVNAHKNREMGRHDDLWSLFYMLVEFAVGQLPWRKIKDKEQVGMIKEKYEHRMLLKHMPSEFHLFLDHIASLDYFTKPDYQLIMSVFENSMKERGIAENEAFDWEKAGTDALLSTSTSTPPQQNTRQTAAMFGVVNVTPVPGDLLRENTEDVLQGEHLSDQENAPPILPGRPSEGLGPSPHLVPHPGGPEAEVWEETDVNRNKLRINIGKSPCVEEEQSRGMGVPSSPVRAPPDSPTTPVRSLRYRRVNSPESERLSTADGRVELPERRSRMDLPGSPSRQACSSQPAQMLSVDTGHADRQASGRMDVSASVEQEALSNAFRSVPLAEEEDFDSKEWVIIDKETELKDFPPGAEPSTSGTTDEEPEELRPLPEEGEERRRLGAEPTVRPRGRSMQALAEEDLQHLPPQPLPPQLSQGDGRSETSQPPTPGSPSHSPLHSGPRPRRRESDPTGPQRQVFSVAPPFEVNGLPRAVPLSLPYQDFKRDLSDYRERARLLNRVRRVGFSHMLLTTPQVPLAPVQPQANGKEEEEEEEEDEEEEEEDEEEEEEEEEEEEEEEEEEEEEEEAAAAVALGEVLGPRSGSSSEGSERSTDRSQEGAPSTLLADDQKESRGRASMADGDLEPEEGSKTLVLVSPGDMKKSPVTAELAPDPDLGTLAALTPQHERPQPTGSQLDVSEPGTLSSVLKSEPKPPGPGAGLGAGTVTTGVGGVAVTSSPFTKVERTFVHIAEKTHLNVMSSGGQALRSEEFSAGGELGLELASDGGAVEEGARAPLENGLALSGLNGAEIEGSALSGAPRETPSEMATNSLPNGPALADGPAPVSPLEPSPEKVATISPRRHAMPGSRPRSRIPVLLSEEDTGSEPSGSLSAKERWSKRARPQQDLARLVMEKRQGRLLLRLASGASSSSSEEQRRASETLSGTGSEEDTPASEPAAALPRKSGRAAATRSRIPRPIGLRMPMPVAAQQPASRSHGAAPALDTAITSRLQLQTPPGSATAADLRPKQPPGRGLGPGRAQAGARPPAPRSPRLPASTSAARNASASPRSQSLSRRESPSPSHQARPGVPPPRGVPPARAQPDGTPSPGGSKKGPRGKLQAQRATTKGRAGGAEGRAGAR

SMILES	remaining activity at 100 µM (TTBK1; read-out: residual kinase activity, TTBK1)	remaining activity at 100 µM (IKKe; read-out: residual kinase activity, IKKe)	remaining activity at 100 µM (PAK2; read-out: residual kinase activity, PAK2)	remaining activity at 100 µM (TAO1; read-out: residual kinase activity, TAO1)	remaining activity at 100 µM (ZAP70; read-out: residual kinase activity, ZAP70)	remaining activity at 100 µM (FGF-R1; read-out: residual kinase activity, FGF-R1)	residual kinase activity, TTBK1 (TTBK1)	residual kinase activity, IKKe (IKKe)	residual kinase activity, PAK2 (PAK2)	residual kinase activity, TAO1 (TAO1)	residual kinase activity, ZAP70 (ZAP70)	residual kinase activity, FGF-R1 (FGF-R1)
CC(=O)Nc1nc2cc(F)ccc2s1 [Compound 03-77]	80%	91%	11%	69%	109%	103%						
O=C(Nc1nc2ccc(O)cc2s1)c1ccncc1 [Compound 08-42]							70	47	108	81	92	54
O=C(Nc1nc2ccc(O)cc2s1)c1cccnc1 [Compound 08-44]							47	50	85	68	79	56

From US10231954B2, “Neurodegenerative therapies” (LYTIX BIOPHARMA AS, priority 2014, dated 2019)
